≈ marks a conversion by molar mass, not a printed value. Calls of active or inactive are those of the source. The calls are words filed in the database; no cut-off is given here.
Legend:
[1] = Inhibition of fluorescent probe FITC tagged PDR1-KIX domain (unknown origin) protein-protein interaction assessed as inhibition constant incubated for 2 hrs by fluorescence polarization binding assay
[2] = system: Nakaseomyces glabratus; assay: Antifungal activity against FLC-resistant Candida glabrata 0161 infected in cyclophosphamide immunosuppressed ICR mouse model assessed as inhibition of fungal growth in kidney at ip administration for 5 days; format: functional, organism-based; conditions: time 5.0 day
[3] = system: Nakaseomyces glabratus; assay: Antifungal activity against FLC-resistant Candida glabrata 0161 infected in cyclophosphamide immunosuppressed ICR mouse model assessed as inhibition of fungal growth in kidney at 40 mg/kg,ip administrated for 5 days; format: functional, organism-based; conditions: time 5.0 day
[4] = system: Nakaseomyces glabratus; assay: Synergistic antifungal activity against FLC-resistant Candida glabrata 0161 infected in cyclophosphamide immunosuppressed ICR mouse model assessed as reduction in kidney fungal infection at 5 mg/kg,ip administrated for 5 days in presence of fluconazole by Hematoxylin and eosin staining based analysis; format: functional, organism-based; conditions: time 5.0 day
[5] = AUC (0-infinity) in ICR mouse at 10 mg/kg,po measured upto 24 hrs by LC-MS/MS analysis; format: ADME, organism-based; set-up: time < 24 hrs, dose 10 mg/kg, route po; conditions: in vivo
[6] = system: Nakaseomyces glabratus; assay: Antifungal activity against fluconazole-resistant Candida glabrata 0161 assessed as fungal growth inhibition incubated for 48 hrs by microplate reader assay; format: functional
[7] = system: Nakaseomyces glabratus; assay: Antifungal activity against fluconazole-resistant Candida glabrata 0161 assessed as fractional inhibitory concentration incubated for 48 hrs in presence of fluconazole by microplate reader assay; format: functional
[8] = system: Nakaseomyces glabratus; assay: Antifungal activity against fluconazole-resistant Candida glabrata 0161 assessed as fluconazole fractional inhibitory concentration incubated for 48 hrs in presence of fluconazole by microplate reader assay; format: functional
[9] = system: Nakaseomyces glabratus; assay: Synergistic antifungal activity against fluconazole-resistant Candida glabrata 0161 assessed as fractional inhibitory concentration index incubated for 48 hrs in presence of fluconazole by checkerboard microdilution method; format: functional
[10] = system: Nakaseomyces glabratus; assay: Antifungal activity against fluconazole-resistant Candida glabrata 9256 assessed as fungal growth inhibition incubated for 48 hrs by microplate reader assay; format: functional
[11] = system: Nakaseomyces glabratus; assay: Antifungal activity against fluconazole-resistant Candida glabrata 8535 assessed as fungal growth inhibition incubated for 48 hrs by microplate reader assay; format: functional
[12] = system: Candida albicans; assay: Antifungal activity against Candida albicans assessed as fungal growth inhibition incubated for 48 hrs by microplate reader assay; format: functional
[13] = system: Candida parapsilosis; assay: Antifungal activity against Candida parapsilosis 20090 assessed as fungal growth inhibition incubated for 48 hrs by microplate reader assay; format: functional; conditions: Lodderomyces parapsilosis
[14] = system: [Candida] auris; assay: Antifungal activity against Candida auris 0030 assessed as fungal growth inhibition incubated for 48 hrs by microplate reader assay; format: functional; conditions: Candidozyma auris
[15] = system: Trichophyton rubrum; assay: Antifungal activity against Trichophyton rubrum assessed as fungal growth inhibition incubated for 48 hrs by microplate reader assay; format: functional
[16] = system: Cryptococcus neoformans; assay: Antifungal activity against Cryptococcus neoformans H99 assessed as fungal growth inhibition incubated for 48 hrs by microplate reader assay; format: functional
[17] = Aqueous solubility of compound; format: physicochemical
[18] = Cytotoxicity against human HUVEC cells incubated for 48 hrs by CCK-8 assay; format: toxicity, cell-based
[19] = system: Nakaseomyces glabratus; assay: Antifungal activity against fluconazole-resistant Candida glabrata 0161 assessed as fungal growth inhibition at 4 ug/ml incubated for 48 hrs by time-growth curve assay; format: functional, organism-based; conditions: dose 4.0 µg/ml
[20] = system: Nakaseomyces glabratus; assay: Antifungal activity against fluconazole-resistant Candida glabrata 0161 assessed as inhibition of fungal growth at 2 to 16 ug/ml incubated for 48 hrs by Spot plating assay; format: functional, organism-based; conditions: dose 2-16 µg/ml
[21] = system: Nakaseomyces glabratus; assay: Synergistic antifungal activity against fluconazole-resistant Candida glabrata 0161 assessed as inhibition of fungal biofilm formation at 1 ug/ml incubated for 24 hrs in presence of fluconazole by XXT reduction menadione assay; format: functional
[22] = system: Nakaseomyces glabratus; assay: Synergistic antifungal activity against fluconazole-resistant Candida glabrata 0161 assessed as inhibition of fungal biofilm formation at 32 ug/ml incubated for 24 hrs in presence of fluconazole by XXT reduction menadione assay; format: functional
[23] = system: Nakaseomyces glabratus; assay: Antifungal activity against fluconazole-resistant Candida glabrata 0161 assessed as inhibition of fungal mature biofilm formation at 0.25 to 64 ug/ml incubated for 24 hrs by XXT reduction menadione assay; format: functional, organism-based; conditions: dose 0.25-64 µg/ml
[24] = system: Nakaseomyces glabratus; assay: Synergistic antifungal activity against fluconazole-resistant Candida glabrata 0161 assessed as inhibition of fungal mature biofilm formation at 1 to 64 ug/ml incubated for 24 hrs in presence of fluconazole by XXT reduction menadione assay; format: functional, organism-based; conditions: dose 1-64 µg/ml
[25] = system: Nakaseomyces glabratus; assay: Synergistic antifungal activity against fluconazole-resistant Candida glabrata 0161 assessed as downregulation of PDR1 gene expression at 4 ug/ml in presence of fluconazole by RT-PCR analysis; format: functional, organism-based; conditions: dose 4.0 µg/ml
[26] = system: Nakaseomyces glabratus; assay: Synergistic antifungal activity against fluconazole-resistant Candida glabrata 0161 assessed as downregulation of CDR1 gene expression at 4 ug/ml in presence of fluconazole by RT-PCR analysis; format: functional, organism-based; conditions: dose 4.0 µg/ml
[27] = system: Nakaseomyces glabratus; assay: Synergistic antifungal activity against fluconazole-resistant Candida glabrata 0161 assessed as downregulation of CDR2 gene expression at 4 ug/ml in presence of fluconazole by RT-PCR analysis; format: functional, organism-based; conditions: dose 4.0 µg/ml
[28] = system: Nakaseomyces glabratus; assay: Synergistic antifungal activity against fluconazole-resistant Candida glabrata 0161 assessed as downregulation of ERG11 gene expression at 4 ug/ml in presence of fluconazole by RT-PCR analysis; format: functional, organism-based; conditions: dose 4.0 µg/ml
[29] = system: Nakaseomyces glabratus; assay: Antifungal activity against FLC-resistant Candida glabrata 0161 infected in cyclophosphamide immunosuppressed ICR mouse model assessed as inhibition of fungal growth in kidney at 5 mg/kg,ip administrated for 5 days; format: functional, organism-based; conditions: time 5.0 day
[30] = system: Nakaseomyces glabratus; assay: Antifungal activity against FLC-resistant Candida glabrata 0161 infected in cyclophosphamide immunosuppressed ICR mouse model assessed as pathological change in kidney at 5 mg/kg,ip administrated for 5 days by Hematoxylin and eosin staining based analysis; format: functional, organism-based; conditions: time 5.0 day
[31] = Half life in ICR mouse at 2 mg/kg,iv measured upto 24 hrs by LC-MS/MS analysis; format: ADME, organism-based; conditions: in vivo
[32] = Half life in ICR mouse at 10 mg/kg,po measured upto 24 hrs by LC-MS/MS analysis; format: ADME, organism-based; conditions: in vivo
[33] = Tmax in ICR mouse at 2 mg/kg,iv measured upto 24 hrs by LC-MS/MS analysis; format: ADME, organism-based; conditions: in vivo
[34] = Tmax in ICR mouse at 10 mg/kg,po measured upto 24 hrs by LC-MS/MS analysis; format: ADME, organism-based; conditions: in vivo
[35] = Cmax in ICR mouse at 2 mg/kg,iv measured upto 24 hrs by LC-MS/MS analysis; format: ADME, organism-based; set-up: dose 2 mg/kg, time < 24 hrs, route iv; conditions: in vivo
[36] = AUC (0-t) in ICR mouse at 2 mg/kg,iv measured upto 24 hrs by LC-MS/MS analysis; format: ADME, organism-based; set-up: time < 24 hrs, dose 2 mg/kg, route iv; conditions: in vivo
[37] = AUC (0-t) in ICR mouse at 10 mg/kg,po measured upto 24 hrs by LC-MS/MS analysis; format: ADME, organism-based; set-up: time < 24 hrs, dose 10 mg/kg, route po; conditions: in vivo
[38] = AUC (0-infinity) in ICR mouse at 2 mg/kg,iv measured upto 24 hrs by LC-MS/MS analysis; format: ADME, organism-based; set-up: dose 2 mg/kg, time < 24 hrs, route iv; conditions: in vivo
[39] = Volume of distribution at steady state in ICR mouse at 2 mg/kg,iv measured upto 24 hrs by LC-MS/MS analysis; format: ADME, organism-based; conditions: in vivo, read-out: Vdss
[40] = Clearance in ICR mouse at 2 mg/kg,iv measured upto 24 hrs by LC-MS/MS analysis; format: ADME, organism-based; conditions: in vivo
[41] = Oral bioavailability in ICR mouse at 10 mg/kg measured upto 24 hrs by LC-MS/MS analysis; format: ADME, organism-based; conditions: in vivo

Nc1cc(=O)n(C(=S)Nc2ccc3c(c2)CCC3)[nH]1
Ki [1]: 11.7 µM | Activity [2]: Dose-Dependent Effect | Activity [3]: Active | Activity [4]: Active | AUC(0-inf) [5]: 390 ng·h/mL | MIC [6]: 0.25 µg/mL (≈ 0.911 µM) | FIC [7]: 0.063 µg/mL | fluconazole MIC in combination [8]: 1 µg/mL | fractional inhibitory concentration index (FICI) [9]: 0.28 | MIC [10]: 0.25 µg/mL (≈ 0.911 µM) | MIC [11]: 0.25 µg/mL (≈ 0.911 µM) | MIC [12]: 4 µg/mL (≈ 14.6 µM) | MIC [13]: 4 µg/mL (≈ 14.6 µM) | MIC [14]: 2 µg/mL (≈ 7.29 µM) | MIC [15]: 1 µg/mL (≈ 3.64 µM) | MIC [16]: 0.063 µg/mL (≈ 0.23 µM) | solubility [17]: 22.1 µg/mL (≈ 80.4 µM) | IC50 at 48 h [18]: > 83 µM | Activity [19]: Active | Activity [20]: Active | inhibition at 1 µg/mL [21]: 33% | inhibition at 32 µg/mL [22]: 73% | inhibition [23]: inactive | inhibition [24]: Active | Activity [25]: Active | Activity [26]: Active | Activity [27]: Active | Activity [28]: Active | Activity [29]: Active | Activity [30]: Active | half-life [31]: 51.6 min | half-life [32]: 36 min | Tmax [33]: 4.8 min | Tmax [34]: 15 min | Cmax [35]: 1520 ng/mL | AUC(0-t) at 24 h [36]: 489 ng·h/mL | AUC(0-t) at 24 h [37]: 389 ng·h/mL | AUC(0-inf) [38]: 491 ng·h/mL | Vd [39]: 1.04 L/kg | clearance [40]: 68.6 mL/min/kg | bioavailability [41]: 15.9%

Reference: ChEMBL document CHEMBL5321270, “Discovery of Pyrazolone Carbothioamide Derivatives as Inhibitors of the Pdr1-KIX Interaction for Combinational Treatment of Azole-Resistant Candidiasis” (J Med Chem, 2023)
